Two molecules from patent publication US10800791B2, “Triazole ACC inhibitors and uses thereof” (Gilead Apollo, LLC, priority 2015, dated 2020) can be followed below.

In brackets after ≈: the same amount, converted by molar mass. Like-named read-outs stand apart in the source and are kept apart here.

In one assay the target is human (hACC2) (Homo sapiens, UniProt O00763). Briefly: In vitro ACC inhibition assay (ADP-Glo), hACC2. The assay is classed as biochemical. As to conditions: 5 nM ACC2, 20 μM ATP, 20 μM acetyl-CoA. The protocol:
The detailed procedure is as follows. […] 10 μL ADP glo reagent was added. […] 20 μL kinase detection reagent was added.

A further assay deals with C. albicans. The assay can be described thus: Antifungal Activity Assay (broth microtiter MIC), C. albicans. The class given is cell-based, Candida albicans. As to conditions: Candida albicans, ATCC90028, 48 h. Summed up:
(§1)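 CLSI M27-A3 microdilution; RPMI 1640+MOPS; 2.5×10^3 CFU/mL final inoculum; cultures from Sabouraud dextrose agar, 35° C overnight; compound working solution 128 μg/mL from 1 mg/mL DMSO stock; visual MIC at 48 h vs growth control.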

The next assay relates to C. krusei. Briefly: Antifungal Activity Assay (broth microtiter MIC), C. krusei. The class given is cell-based, Candida krusei. The note with it: Pichia kudriavzevii, ATCC6258, 48 h. Summed up: as §1
The subject of another assay is C. parapsilosis. Briefly: Antifungal Activity Assay (broth microtiter MIC), C. parapsilosis. The assay is classed as cell-based, Candida parapsilosis. As to conditions: Lodderomyces parapsilosis, ATCC22019, 48 h. The procedure, abridged:
as §1

The subject of the next assay is Botrtyis cinerea (Bc). Briefly: Growth inhibition assay of fungal pathogens, Bc. The class given is cell-based. As to conditions: 48 h. The procedure, abridged: (§2)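 Pathogen growth in 17% V8 broth is measured by OD600 at 24 and 48 hours, after blank subtraction, in the presence of compound at 50, 10 and 2 ppm or 2, 0.4 and 0.08 ppm. Inhibition in percent comes from 48-hour readings against the DMSO control.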

The next assay concerns Diplodia maydis (Dm). The assay can be described thus: Growth inhibition assay of fungal pathogens, Dm. The class given is cell-based. As to conditions: Stenocarpella maydis, 48 h. The procedure, abridged: as §2
For assay [1], the system named is Fusarium virguliforme (Fv). The assay can be described thus: Growth inhibition assay of fungal pathogens, Fv. The assay is classed as cell-based. As to conditions: 48 h. The procedure, abridged:
as §2

For assay [2], the system named is Phytophthora capsici (Pc). The assay can be described thus: Growth inhibition assay of fungal pathogens, Pc. The class given is cell-based. The note with it: 48 h. The procedure, abridged:
as §2

The subject of a further assay is Rhizoctonia solani (Rs). The assay can be described thus: Growth inhibition assay of fungal pathogens, Rs. The class given is cell-based. As to conditions: 48 h.
The target of the next assay is fungal (fACC2) (UniProt Q00955). The note with it: read-out: fACC2 (in vitro ACC2 Inhibition Assay, IC50), ADP-Glo, 5 nM ACC2, 20 μM ATP, 20 μM acetyl-CoA.
Chain of fungal (fACC2) (Q00955 whole entry): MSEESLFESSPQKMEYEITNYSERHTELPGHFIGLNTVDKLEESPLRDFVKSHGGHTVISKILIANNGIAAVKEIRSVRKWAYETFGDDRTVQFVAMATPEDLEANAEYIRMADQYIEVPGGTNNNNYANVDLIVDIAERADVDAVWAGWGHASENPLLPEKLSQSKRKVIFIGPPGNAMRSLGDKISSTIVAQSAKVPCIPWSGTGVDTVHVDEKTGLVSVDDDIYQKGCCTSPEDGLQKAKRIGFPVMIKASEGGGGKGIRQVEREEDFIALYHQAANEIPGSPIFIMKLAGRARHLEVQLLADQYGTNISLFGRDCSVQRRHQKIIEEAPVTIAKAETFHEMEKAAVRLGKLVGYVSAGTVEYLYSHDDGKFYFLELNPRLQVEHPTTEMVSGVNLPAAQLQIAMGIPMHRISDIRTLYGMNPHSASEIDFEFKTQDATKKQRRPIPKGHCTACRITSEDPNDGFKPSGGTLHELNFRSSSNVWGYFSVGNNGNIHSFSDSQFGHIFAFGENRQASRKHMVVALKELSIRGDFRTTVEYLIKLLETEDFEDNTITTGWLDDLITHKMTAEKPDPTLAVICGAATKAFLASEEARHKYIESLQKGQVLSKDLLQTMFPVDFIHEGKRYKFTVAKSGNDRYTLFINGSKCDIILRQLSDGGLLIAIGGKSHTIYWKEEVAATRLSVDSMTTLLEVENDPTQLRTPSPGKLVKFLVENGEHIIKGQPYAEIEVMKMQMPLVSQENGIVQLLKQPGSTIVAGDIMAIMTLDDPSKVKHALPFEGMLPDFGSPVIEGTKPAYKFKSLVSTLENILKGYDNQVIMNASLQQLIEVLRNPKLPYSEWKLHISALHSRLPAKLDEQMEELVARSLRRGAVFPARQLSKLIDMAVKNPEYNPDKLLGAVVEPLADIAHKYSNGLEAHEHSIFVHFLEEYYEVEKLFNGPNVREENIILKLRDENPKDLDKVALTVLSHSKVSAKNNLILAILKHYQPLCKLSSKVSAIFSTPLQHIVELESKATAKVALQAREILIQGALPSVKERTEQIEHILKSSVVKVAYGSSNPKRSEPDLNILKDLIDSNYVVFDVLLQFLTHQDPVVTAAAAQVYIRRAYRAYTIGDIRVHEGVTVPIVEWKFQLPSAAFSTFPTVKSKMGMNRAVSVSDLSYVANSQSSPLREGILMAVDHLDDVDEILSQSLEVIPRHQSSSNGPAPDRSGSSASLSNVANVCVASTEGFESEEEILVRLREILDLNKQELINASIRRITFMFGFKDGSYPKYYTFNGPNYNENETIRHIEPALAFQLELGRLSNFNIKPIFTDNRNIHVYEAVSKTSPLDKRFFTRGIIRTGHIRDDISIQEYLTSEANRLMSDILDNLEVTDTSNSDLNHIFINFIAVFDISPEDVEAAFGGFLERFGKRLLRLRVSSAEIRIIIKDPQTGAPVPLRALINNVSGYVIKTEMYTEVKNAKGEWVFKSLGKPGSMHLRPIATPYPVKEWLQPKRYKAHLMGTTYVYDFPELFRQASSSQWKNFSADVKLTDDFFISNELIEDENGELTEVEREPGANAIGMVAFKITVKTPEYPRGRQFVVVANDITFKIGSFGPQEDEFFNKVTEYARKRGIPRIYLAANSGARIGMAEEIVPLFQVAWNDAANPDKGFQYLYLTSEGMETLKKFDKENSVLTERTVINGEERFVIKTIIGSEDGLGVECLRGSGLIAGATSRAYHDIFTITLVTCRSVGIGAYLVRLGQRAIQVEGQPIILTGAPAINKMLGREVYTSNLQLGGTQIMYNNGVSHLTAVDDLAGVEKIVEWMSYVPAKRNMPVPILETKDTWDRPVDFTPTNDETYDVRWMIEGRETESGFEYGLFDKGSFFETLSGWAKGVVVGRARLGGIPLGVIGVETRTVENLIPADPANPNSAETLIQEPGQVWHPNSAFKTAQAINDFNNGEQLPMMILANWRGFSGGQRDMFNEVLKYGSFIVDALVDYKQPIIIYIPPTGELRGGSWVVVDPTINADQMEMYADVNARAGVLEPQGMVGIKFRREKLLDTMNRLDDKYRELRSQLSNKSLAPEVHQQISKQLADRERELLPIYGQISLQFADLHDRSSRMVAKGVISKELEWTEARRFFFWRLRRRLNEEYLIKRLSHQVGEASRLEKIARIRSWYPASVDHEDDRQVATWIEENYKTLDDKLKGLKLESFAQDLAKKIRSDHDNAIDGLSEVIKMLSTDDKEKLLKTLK

Chain of human (hACC2) (O00763 whole entry): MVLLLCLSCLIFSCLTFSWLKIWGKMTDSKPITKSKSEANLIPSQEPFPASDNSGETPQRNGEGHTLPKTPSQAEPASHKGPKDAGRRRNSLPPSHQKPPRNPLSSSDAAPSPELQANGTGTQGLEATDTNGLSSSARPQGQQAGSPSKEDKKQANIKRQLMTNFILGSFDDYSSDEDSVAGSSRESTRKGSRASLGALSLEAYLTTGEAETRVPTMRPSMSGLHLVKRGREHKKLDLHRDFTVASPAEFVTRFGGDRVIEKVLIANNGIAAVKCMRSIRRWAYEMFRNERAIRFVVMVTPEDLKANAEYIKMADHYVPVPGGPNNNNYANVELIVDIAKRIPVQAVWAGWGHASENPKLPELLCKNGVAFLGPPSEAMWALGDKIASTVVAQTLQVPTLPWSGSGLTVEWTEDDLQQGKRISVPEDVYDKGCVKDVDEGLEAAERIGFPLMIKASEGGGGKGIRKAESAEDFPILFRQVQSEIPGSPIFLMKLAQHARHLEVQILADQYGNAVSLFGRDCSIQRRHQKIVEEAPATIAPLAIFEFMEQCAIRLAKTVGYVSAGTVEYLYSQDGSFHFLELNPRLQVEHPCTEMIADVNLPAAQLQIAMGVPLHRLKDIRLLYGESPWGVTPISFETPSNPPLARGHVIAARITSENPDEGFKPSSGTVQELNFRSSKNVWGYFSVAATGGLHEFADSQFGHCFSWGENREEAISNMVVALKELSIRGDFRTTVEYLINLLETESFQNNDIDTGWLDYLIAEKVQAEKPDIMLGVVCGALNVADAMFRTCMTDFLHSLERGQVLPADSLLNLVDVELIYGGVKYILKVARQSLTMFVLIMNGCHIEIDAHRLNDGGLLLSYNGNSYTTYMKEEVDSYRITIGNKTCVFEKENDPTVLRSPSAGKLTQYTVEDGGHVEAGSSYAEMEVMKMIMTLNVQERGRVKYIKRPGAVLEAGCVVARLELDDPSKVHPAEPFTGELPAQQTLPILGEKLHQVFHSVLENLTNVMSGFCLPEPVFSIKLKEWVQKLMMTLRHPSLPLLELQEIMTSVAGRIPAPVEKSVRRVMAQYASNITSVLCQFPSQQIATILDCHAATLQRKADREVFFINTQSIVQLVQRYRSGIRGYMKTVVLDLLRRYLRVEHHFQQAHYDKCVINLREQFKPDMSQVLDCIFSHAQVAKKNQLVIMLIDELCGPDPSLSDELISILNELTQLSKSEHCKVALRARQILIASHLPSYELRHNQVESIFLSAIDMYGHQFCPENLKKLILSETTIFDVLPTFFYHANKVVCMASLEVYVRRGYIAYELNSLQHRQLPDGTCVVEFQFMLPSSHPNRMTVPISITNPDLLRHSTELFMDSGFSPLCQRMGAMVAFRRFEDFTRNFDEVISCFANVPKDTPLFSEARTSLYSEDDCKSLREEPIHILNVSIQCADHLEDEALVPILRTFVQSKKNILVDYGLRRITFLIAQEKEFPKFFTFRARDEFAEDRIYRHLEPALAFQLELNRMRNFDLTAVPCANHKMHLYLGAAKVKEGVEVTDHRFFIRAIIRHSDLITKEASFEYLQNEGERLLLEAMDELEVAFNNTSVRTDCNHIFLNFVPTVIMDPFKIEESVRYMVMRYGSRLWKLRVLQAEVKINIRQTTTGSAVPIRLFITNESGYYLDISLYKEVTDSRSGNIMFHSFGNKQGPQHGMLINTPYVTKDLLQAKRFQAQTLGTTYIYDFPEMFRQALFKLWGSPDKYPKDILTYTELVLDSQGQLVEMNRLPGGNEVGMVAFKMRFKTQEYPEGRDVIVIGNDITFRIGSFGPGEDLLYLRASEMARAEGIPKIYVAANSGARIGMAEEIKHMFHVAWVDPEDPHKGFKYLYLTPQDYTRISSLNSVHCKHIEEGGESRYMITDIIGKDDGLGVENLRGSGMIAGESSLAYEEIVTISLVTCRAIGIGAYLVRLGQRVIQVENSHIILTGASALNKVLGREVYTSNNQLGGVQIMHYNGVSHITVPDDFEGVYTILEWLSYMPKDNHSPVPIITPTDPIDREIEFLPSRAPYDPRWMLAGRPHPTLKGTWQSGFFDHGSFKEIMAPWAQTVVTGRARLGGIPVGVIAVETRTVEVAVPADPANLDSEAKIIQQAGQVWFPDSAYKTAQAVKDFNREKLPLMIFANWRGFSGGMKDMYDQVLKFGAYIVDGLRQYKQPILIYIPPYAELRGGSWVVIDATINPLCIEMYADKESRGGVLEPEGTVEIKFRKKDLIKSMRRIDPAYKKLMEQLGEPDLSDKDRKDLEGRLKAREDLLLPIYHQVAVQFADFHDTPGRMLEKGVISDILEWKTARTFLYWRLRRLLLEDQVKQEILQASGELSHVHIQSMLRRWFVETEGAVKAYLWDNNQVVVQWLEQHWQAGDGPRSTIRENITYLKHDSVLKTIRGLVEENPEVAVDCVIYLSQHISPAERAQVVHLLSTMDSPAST

Regarding `COc1ccc(F)cc1[C@H](Cn1c(=O)n(CC(=O)NC(C)C)c(=O)c2c(C)c(-n3nccn3)sc21)OC(C)C` [Compound I-35, (R)-2-(1-(2-(5-fluoro-2-methoxyphenyl)-2-isopropoxy-ethyl)-5-methyl-2,4-dioxo-6-(2H-1,2,3-triazol-2-yl)-1,4-dihydrothieno[2,3-d]pyrimidin-3(2H)-yl)-N-isopropylacetamide], the IC50 on human (hACC2) (Table 2a) lay in the range of 1 to 5 nM; on human (hACC2) (Table 2b, additional results), 1 to 5 nM; at fungal (fACC2) (Table 2a), 1 to 5 nM; at fungal (fACC2) (Table 2b, additional results), 1 to 5 nM. Besides, the MIC in the assay on C. albicans (read-out: MIC, C. albicans ATCC 90028, Table 3a, 3 replicates, MIC recorded at 48 h) is 2.1 to 4 µg/mL (≈ 3.76 to 7.16 µM); in the assay with C. albicans (read-out: MIC, C. albicans ATCC 90028, Table 3b (additional results), 3 replicates, MIC recorded at 48 h), 2.01 to 4 µg/mL (≈ 3.6 to 7.16 µM); in the assay with C. krusei (read-out: MIC, C. krusei ATCC 6258, Table 3a, 3 replicates, MIC recorded at 48 h), 2.1 to 4 µg/mL (≈ 3.76 to 7.16 µM); with C. krusei (read-out: MIC, C. krusei ATCC 6258, Table 3b (additional results), 3 replicates, MIC recorded at 48 h), > 4.01 µg/mL; in the assay on C. parapsilosis (read-out: MIC, C. parapsilosis ATCC 22019, Table 3a, 3 replicates, MIC recorded at 48 h), 2.1 to 4 µg/mL (≈ 3.76 to 7.16 µM); in the assay with C. parapsilosis (read-out: MIC, C. parapsilosis ATCC 22019, Table 3b (additional results), 3 replicates, MIC recorded at 48 h), 2.01 to 4 µg/mL (≈ 3.6 to 7.16 µM). In addition, the IC90 in the assay with Botrtyis cinerea (Bc) (read-out: Concentration at 90% Inhibition Bc, Botrtyis cinerea, growth inhibition at 48 hours vs 2% DMSO control) was 0.4 µg/mL (≈ 0.716 µM); in the assay on Botrtyis cinerea (Bc) (read-out: Concentration at 90% Inhibition Bc, Botrtyis cinerea, growth inhibition vs 2% DMSO control at 48 hours) it was 0.4 µg/mL (≈ 0.716 µM); in the assay with Diplodia maydis (Dm) (read-out: Concentration at 90% Inhibition Dm, Diplodia maydis, growth inhibition at 48 hours vs 2% DMSO control) it was 0.4 µg/mL (≈ 0.716 µM); in the assay with Diplodia maydis (Dm) (read-out: Concentration at 90% Inhibition Dm, Diplodia maydis, growth inhibition vs 2% DMSO control at 48 hours), 0.4 µg/mL (≈ 0.716 µM); in [1] (read-out: Concentration at 90% Inhibition Fv, Fusarium virguliforme, growth inhibition at 48 hours vs 2% DMSO control), 0.4 µg/mL (≈ 0.716 µM); in assay [1] (read-out: Concentration at 90% Inhibition Fv, Fusarium virguliforme, growth inhibition vs 2% DMSO control at 48 hours), 0.4 µg/mL (≈ 0.716 µM). The IC90 in assay [2] (read-out: Concentration at 90% Inhibition Pc, Phytophthora capsici, growth inhibition at 48 hours vs 2% DMSO control) was > 50 µg/mL; in assay [2] (read-out: Concentration at 90% Inhibition Pc, Phytophthora capsici, growth inhibition vs 2% DMSO control at 48 hours), > 50 µg/mL; in the assay with Rhizoctonia solani (Rs) (read-out: Concentration at 90% Inhibition Rs, Rhizoctonia solani, mycelial plugs, growth inhibition at 48 hours vs 2% DMSO control), 2 µg/mL (≈ 3.58 µM); in the assay on Rhizoctonia solani (Rs) (read-out: Concentration at 90% Inhibition Rs, Rhizoctonia solani, mycelial plugs, growth inhibition vs 2% DMSO control at 48 hours) it was 10 µg/mL (≈ 17.9 µM).

For the molecule `CCO[C@@H](Cn1c(=O)n(C(C)(C)C(=O)N2CCCC2)c(=O)c2c(C)c(-n3nccn3)sc21)c1cc(F)ccc1OC` [Compound I-42, (R)-1-(2-ethoxy-2-(5-fluoro-2-methoxyphenyl)ethyl)-5-methyl-3-(2-methyl-1-oxo-1-(pyrrolidin-1-yl)propan-2-yl)-6-(2H-1,2,3-triazol-2-yl)thieno[2,3-d]pyrimidine-2,4(1H,3H)-dione], the IC50 on human (hACC2) (Table 2a) was 5 to 10 nM; on human (hACC2) (Table 2b, additional results) it was 5 to 10 nM; on fungal (fACC2) (Table 2a) it was 1 to 5 nM; on fungal (fACC2) (Table 2b, additional results) it was 1 to 5 nM. Moreover, the MIC was in the range of 1.1 to 2 µg/mL (≈ 1.88 to 3.42 µM) in the assay on C. albicans (Table 3a, ATCC 90028, 3 replicates, MIC recorded at 48 h, read-out: MIC, C. albicans ATCC 90028); 2.01 to 4 µg/mL (≈ 3.44 to 6.84 µM) in the assay on C. albicans (Table 3b (additional results), ATCC 90028, 3 replicates, MIC recorded at 48 h, read-out: MIC, C. albicans ATCC 90028); 0.25 to 1 µg/mL (≈ 0.428 to 1.71 µM) in the assay on C. krusei (Table 3a, ATCC 6258, 3 replicates, MIC recorded at 48 h, read-out: MIC, C. krusei ATCC 6258); 1.01 to 2 µg/mL (≈ 1.73 to 3.42 µM) in the assay on C. krusei (Table 3b (additional results), ATCC 6258, 3 replicates, MIC recorded at 48 h, read-out: MIC, C. krusei ATCC 6258); 1.1 to 2 µg/mL (≈ 1.88 to 3.42 µM) with C. parapsilosis (Table 3a, ATCC 22019, 3 replicates, MIC recorded at 48 h, read-out: MIC, C. parapsilosis ATCC 22019); 1.01 to 2 µg/mL (≈ 1.73 to 3.42 µM) in the assay with C. parapsilosis (Table 3b (additional results), ATCC 22019, 3 replicates, MIC recorded at 48 h, read-out: MIC, C. parapsilosis ATCC 22019). The IC90 in the assay on Botrtyis cinerea (Bc) (Botrtyis cinerea, growth inhibition at 48 hours vs 2% DMSO control, read-out: Concentration at 90% Inhibition Bc) worked out at 0.4 µg/mL (≈ 0.684 µM); in the assay with Botrtyis cinerea (Bc) (Botrtyis cinerea, growth inhibition vs 2% DMSO control at 48 hours, read-out: Concentration at 90% Inhibition Bc) it was 0.4 µg/mL (≈ 0.684 µM); in the assay on Diplodia maydis (Dm) (Diplodia maydis, growth inhibition at 48 hours vs 2% DMSO control, read-out: Concentration at 90% Inhibition Dm), 0.4 µg/mL (≈ 0.684 µM); with Diplodia maydis (Dm) (Diplodia maydis, growth inhibition vs 2% DMSO control at 48 hours, read-out: Concentration at 90% Inhibition Dm), 0.4 µg/mL (≈ 0.684 µM); in [1] (growth inhibition at 48 hours vs 2% DMSO control, read-out: Concentration at 90% Inhibition Fv) it was 0.08 µg/mL (≈ 0.137 µM); in [1] (growth inhibition vs 2% DMSO control at 48 hours, read-out: Concentration at 90% Inhibition Fv), 0.08 µg/mL (≈ 0.137 µM). In addition, the IC90 was > 50 µg/mL in assay [2] (growth inhibition at 48 hours vs 2% DMSO control, read-out: Concentration at 90% Inhibition Pc); > 50 µg/mL in assay [2] (growth inhibition vs 2% DMSO control at 48 hours, read-out: Concentration at 90% Inhibition Pc); 0.4 µg/mL (≈ 0.684 µM) in the assay on Rhizoctonia solani (Rs) (mycelial plugs, growth inhibition at 48 hours vs 2% DMSO control, read-out: Concentration at 90% Inhibition Rs); 0.4 µg/mL (≈ 0.684 µM) in the assay with Rhizoctonia solani (Rs) (mycelial plugs, growth inhibition vs 2% DMSO control at 48 hours, read-out: Concentration at 90% Inhibition Rs).
